Laboratory results reported in patent publication US9593305B2, “Differentiation of pluripotent stem cells” (Janssen Biotech, Inc., priority 2008, dated 2017).

Test system: H1 human embryonic stem cells
Test: Step-wise differentiation, high content analysis of SOX17, cell number, insulin, glucagon (Example 16)
Format: cell-based
Protocol: The assay was initiated by aspirating the culture medium from each well and adding back an aliquot (0.5 ml) of test medium. Test conditions for the first step of differentiation were conducted over a three-day period, feeding daily by aspirating and replacing the medium from each well with fresh test medium. On the first day of assay, 100 ng/ml activin A (PeproTech; Cat #120-14) or 100 ng/ml GDF-8 (R&D Systems, Cat #788-G8) was added to respective assay wells where each growth factor was diluted into RPMI-1640 medium (Invitrogen; Cat #: 22400) with 2% Albumin Bovine Fraction V, Fatty Acid Free (FAF BSA) (Proliant Inc. Cat #: SKU 68700), and 20 ng/ml Wnt3a (R&D Systems; Cat #1324-WN/CF). On the second day of assay, 100 ng/ml activin A or 100 ng/ml GDF-8 was diluted into RPMI-1640 medium supplemented with 2% FAF BSA without Wnt3a. In some test samples using GDF-8, Wnt3a was replaced with a small molecule compound, added only on the first day of definitive endoderm differentiation. These small molecules included Compound 19 (2.5 μM in assay), Compound 202 (2.5 μM in assay), Compound 40 (2.5 μM in assay), or a commercially available GSK3 inhibitor BIO (0.5 μM in assay) (EMD Chemicals, Inc.; Cat #361550). At the conclusion of the first step of differentiation, cells from some wells were harvested for flow cytometry analysis to evaluate levels of CXCR4, a marker of definitive endoderm formation. Additional wells were harvested for RT-PCR analysis to measure other markers of differentiation.
Step 5 of the differentiation protocol was carried out over seven days in DMEM-high glucose with 0.1% Albumax, 0.5× Insulin-Transferrin-Selenium, and 1 μM Alk 5 inhibitor. […]
Imaging was performed using an IN Cell Analyzer 1000 (GE Healthcare) utilizing the 51008bs dichroic for cells stained with Hoechst 33342 and Alexa Fluor 488. […] Segmentation for the nuclei was determined based on gray-scale levels (baseline range 100-300) and nuclear size. Averages and standard deviations were calculated for each replicate data set. […]

With `CN1CCC(=O)NCCCc2cncc(c2)-c2ncnc(n2)Nc2cccc(c2)C1` [Compound 19, 14-Methyl-3,5,7,14,18,24,28-heptaazatetracyclo[20.3.1.1˜2,6˜0.1˜8,12˜]octacosa-1(26), 2(28), 3,5,8(27), 9,11,22,24-nonaen-17-one] the “relative cell numbers recovered through differentiation step 5” value (GDF-8 with compound in step 1, relative to activin A and Wnt3a) was “decrease in cell number”.

`C=CCN1CC(=O)NCCCc2cncc(c2)-c2ncnc(n2)Nc2cccc(c2)C1` [Compound 40, 14-Prop-2-en-1-yl-3,5,7,14,17,23,27-heptaazatetracyclo[19.3.1.1˜2.6˜0.1˜8,12˜]heptacosa-1(25), 2(27), 3,5,8(26), 9,11,21,23-nonaen-16-one] was tested, and the “cell numbers and SOX17 expression after step 1” value (100 ng/ml GDF-8 with 2.5 μM compound on first day) was “cell numbers in culture and SOX17 expression equivalent to treatment with activin A and Wnt3a”.
